In patent US8466164B2:

Experiments:
[1] = test system: Src-Y416 phosphorylation in SaOS-2; assay: immunoblotting of phospho-Src-Y416 in SaOS-2; type: cell-based, human; details: SaOS-2, compounds at their IC50, 3 h
Protocol: Compounds were used at their corresponding IC50. Cells were treated for 3 h prior to their lysis. A) Specific c-Src phosphorylation was evaluated when whole-cell lysates were immunoprobed with anti-nonphospho-Src-Y416 and anti-phospho-Src-Y416 antibodies. B) Graph reports the optical density values relative to immunoreactive bands of phospho-Src-Y416. […] C) Graphical representation of SI-83 (magenta) into the ATP binding pocket of Src. The solvent accessible surface of residues is depicted (blue), while several amino acids, responsible for the major hydrophobic contacts with the binding site, are also shown (cyan).
For Phospho-SrcY416 detection, cells were lysed in ice-cold 0.1% SDS containing a cocktail of protease inhibitors and 1 mM sodium orthovanadate (Sigma-Aldrich). […] All antibodies employed were from Cell Signaling Technology ([…], USA). Proteins were probed with primary antibodies o.n. at 4° C., followed by secondary antibodies for 1 h at room temperature. Detection was obtained by ImmunoStar HRP™ (BioRad). Band areas were detected using ImageScanner™ (Amersham Bioscience, Little Chalfont, GB) and bands' optical densities were analysed by Image Master software (Amersham Bioscience). Band optical densities of Phospho-SrcY416 were normalized against those of total Src as an internal control.

SaOS-2 cells [2] = assay: TUNEL assay on SaOS-2; type: cell-based, human; details: 48 h treatment, 12.5 μM
SaOS-2 cells [3] = assay: MTT cell viability assay on SaOS-2; details: for CV (%) after 24 h (cellular viability with respect to control): 24 h treatment; for CV (%) after 24 h (cellular viability with respect to control) / CV (%) after 48 h (cellular viability with respect to control): control = 100%, mean ± SD; for CV (%) after 48 h (cellular viability with respect to control): 48 h treatment, 25 μM; for IC50: read-out: IC50 on SaOS-2 cell viability, MTT, 1-100 μM, 48 h
normal human osteoblasts = assay: nodule formation and mineralization (alizarin red S); details: IC5, IC20, IC50 (SaOS-2); for tolerance of treatment by osteoblasts: three weeks
[4] = test system: primary human osteoblasts; assay: MTT cell viability assay on primary human osteoblasts; details: 48 h; for reduction of osteoblast growth (inhibitory activity): 25 μM
SaOS-2 cells [5] = assay: flow cytometric cell cycle/apoptosis analysis on SaOS-2; details: 48 h, 3 μM to 100 μM
[6] = test system: primary human osteoblasts; assay: flow cytometric apoptosis analysis on primary osteoblasts; details: for reduction of pro-apoptotic effect on osteoblasts respecting to SaOS-2: at IC50 (determined on SaOS-2), 48 h
recombinant human Src = recombinant human Src (Homo sapiens, UniProt P12931); assay: cell-free Src enzymatic assay; type: biochemical; details: calculated from ID50; triplicate, mean values; read-out: Ki toward recombinant human Src
[7] = test system: Ba/F3 cells expressing mutated Bcr-Abl / IM-resistant cell lines; assay: Annexin V/PI apoptotic assay on Ba/F3 cells; type: cell-based; details: 5 μM
Protocol: Apoptotic assay was performed on 1×10^6 cells and apoptotic cells were recognized by cytofluorimetric analysis of fluorescinated Annexin V (Roche) and PI uptake.

[8] = test system: phosphorylation of Bcr-Abl (Tyr245), Src (Tyr416) and Lyn (Tyr507); assay: western blot of kinase phosphorylation in Ba/F3 cells; type: cell-based; details: 5 μM, up to 24th h of exposure, Imatinib-sensitive and resistant contexts
Protocol: The inhibitory effects of S29 toward the phosphorylation of Bcr-Abl (Tyr245), Src (Tyr416) and Lyn (Tyr507) were assessed using western blot analysis. Whole cell lysates were obtained from 1×10^7 cells (either untreated or following 24 h and 48 h exposure to 5 μM S29) in lysis buffer.
Protein lysates from whole cells were incubated overnight with the primary antibodies (anti-Abl phosphorylated at Tyr245, Cell Signaling; anti-Src phosphorylated at Tyr416, Cell Signaling; anti-Lyn phosphorylated at Tyr507, Cell Signaling; anti-Lyn, Biosource; anti-Beta-actin, Santa Cruz Biotechnology) and then 1 h at rt with the secondary antibodies (Amersham). Beta actin was used for protein loading control. Signal intensities from 3 repeated blots were quantified by a GS-700 Imagining densitometer (BioRad) equipped with a dedicated software (Molecular Analyst).

SaOS-2 xenograft = SaOS-2 xenograft in nude mice; type: in vivo, CD 1 nude mice
Protocol: In order to evaluate the effect of SI-83 in a preclinical experimental model of osteosarcoma the authors injected s.c. SaOS-2 cells together with Matrigel in nude mice. […] The authors divided mice in three groups containing each 4 mice: mice receiving vehicle (control); mice receiving 50 mg/kg SI-83; mice receiving 100 mg/kg SI-83. The administration of SI-83 determined at endpoint a reduction in xenograft growth respect to control measured as weight reduction (FIG. 6B1). At the dose of 100 mg/kg, SI-83 determined a significant reduction (P<0.01) in tumour weight of about 40% respect to control tumours. Also the administration of 50 mg/kg SI-83 determined a smaller (about 15%) but significant reduction (p<0.05) in tumour volume respect to control (FIG. 6B1). Xenograft tissues were processed for histologic evaluation of phospho-Src expression (FIG. 6B3). Tumour cells in the control group expressed detectable levels of phospho-Src.
CD 1 nude mice (Charles River, Milan, Italy) were maintained under the guidelines established by the authors' Institution (University of L'Aquila, Medical School and Science and Technology School Board Regulations, complying with the Italian government regulation n.116 Jan. 27, 1992 for the use of laboratory animals). Before tumour cells implantation, mice were anesthesized with a mixture of ketamine (25 mg/mL)/xylazine (5 mg/mL). Xenografts were obtained by injecting s.c. 1×10^6 SaOS-2 cells in 100 μL of 12 mg/ml Matrigel (Becton Dickinson). Mice received daily the drug by per os administration at the doses indicated. Tumour growth was monitored daily and at the endpoint, after 26 days, the tumors were excided, weighted and processed for histology. Briefly tumors were fixed in 4% formaldehyde in 0.1 M phosphate buffer, pH 7.2 and embedded in paraffin. Slide-mounted tissue sections (4 μm thick) were deparaffinized in xylene and hydrated serially in 100, 95, and 80% ethanol. Endogenous peroxidases were quenched in 3% H2O2 in PBS for 1 h and then slides were incubated with anti human Src [pY416] phosphospecific antibody (Biosource, Camarillo, Calif., USA) for 1 h at room temperature.

mouse osteoclasts = assay: osteoclast bone resorption assay; type: cell-based
Source text: It is very important to note that there is a significant difference in bone resorption for the control (DMSO) in the two experiments reported in FIG. 4. […] The method used to measure bone resorption is based on the growth in vitro of osteoclasts that then resorb bone. However, this cell-based assay is usually characterized by a significant variability, mainly due to the fact that the basic amount of bone resorption can vary among replicates. Although such a limitation, this assay is widely recognized as the gold standard to assess the ability of compounds to inhibit bone resorption by osteoclasts.^53

MNNG cells = assay: MTT cell viability assay on MNNG; type: cell-based, human; details: 48 h
TE-85 = assay: MTT cell viability assay on TE-85; type: cell-based, human; details: 48 h
U-20S = assay: MTT cell viability assay on U-20S; type: cell-based, human; details: 48 h
MG63 = assay: MTT cell viability assay on MG63; type: cell-based, human; details: 48 h
in vitro = details: male, human, primary human osteoblasts
[9] = test system: human primary osteoblasts; assay: Hoechst staining of primary osteoblasts; details: 25 μM

Sequence of recombinant human Src (P12931 whole entry): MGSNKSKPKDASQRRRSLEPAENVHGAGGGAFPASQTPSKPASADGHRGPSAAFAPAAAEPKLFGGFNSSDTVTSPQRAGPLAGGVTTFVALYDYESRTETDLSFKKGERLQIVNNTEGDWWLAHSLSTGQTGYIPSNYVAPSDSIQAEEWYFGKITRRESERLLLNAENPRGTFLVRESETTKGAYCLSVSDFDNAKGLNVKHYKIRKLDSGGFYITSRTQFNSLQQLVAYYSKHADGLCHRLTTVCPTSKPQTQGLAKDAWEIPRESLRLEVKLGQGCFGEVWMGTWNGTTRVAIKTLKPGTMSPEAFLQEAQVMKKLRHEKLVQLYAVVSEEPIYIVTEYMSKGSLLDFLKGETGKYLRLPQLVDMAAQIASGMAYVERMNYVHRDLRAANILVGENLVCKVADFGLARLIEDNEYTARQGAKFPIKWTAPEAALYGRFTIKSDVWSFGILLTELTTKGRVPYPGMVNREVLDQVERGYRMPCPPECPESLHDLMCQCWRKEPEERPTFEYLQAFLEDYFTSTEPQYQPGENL

For `CC(C)(C)n1nc(-c2ccc(Cl)cc2)c2c(N)ncnc21` [PP2, reference compound], the “inhibition of phosphorylation of Src at Y416” value [1] was 50%, the “pro-apoptotic effect (TUNEL)” value (SaOS-2 cells [2]) was “induced apoptosis” and the “concentration at which 83% inhibition of cell viability is obtained” value (SaOS-2 cells [3]; SaOS-2, MTT) was “higher than 50 μM”. For the same compound, the “CV (%) after 24 h (cellular viability with respect to control)” value (SaOS-2 cells [3]; SaOS-2, MTT) was 36.8 ± 1.7%, the “CV (%) after 48 h (cellular viability with respect to control)” value (SaOS-2 cells [3]; SaOS-2, MTT) was 36.4 ± 1.6% and the IC50 (SaOS-2 cells [3]) was 8.07 µM. The “tolerance of treatment by osteoblasts” value (normal human osteoblasts) was “did not tolerate drug treatment”, the “percentage of Ca2+ inside calcification nodules” value (normal human osteoblasts; twice a week, 1-3 weeks) was “always lower than control” and the “reduction of osteoblast growth (inhibitory activity)” value [4] was 50%. For the same compound, the cell cycle progression (SaOS-2 cells [5]) was “stop cell cycle progression in G0 and G1 phases in a dose-dependent manner” and the “reduction of pro-apoptotic effect on osteoblasts respecting to SaOS-2” value [6] was 15%.

In the case of `Fc1ccc(CNc2ncnc3c2cnn3CC(Cl)c2ccc(Cl)cc2)cc1` (centres unmarked) [S-29], the Ki (recombinant human Src) is reported as 0.5 µM, the apoptosis induction ([7]; IM-resistant cell lines additioned with IL-3, after 24 h of exposure) is reported as “apoptosis occurred” and the apoptosis induction ([7]; mutated cell lines, after 48 h treatment) is reported as “induced apoptotic death”. The “Bcr-Abl and Lyn-Src kinase phosphorylation” value [8] was “Complementary abrogation”.

In the case of `CSc1nc(Nc2cccc(Cl)c2)c2cnn(CC(Cl)c3ccccc3)c2n1` (centres unmarked) [SI-83], the Ki (recombinant human Src) is reported as 0.6 µM, the “inhibition of phosphorylation of Src at Y416” value [1] is reported as 55% and the “reduction in tumour volume respect to control” value (SaOS-2 xenograft; 50 mg/kg daily per os, endpoint day 26, p<0.05) is reported as “about 15%”. The “reduction in tumour weight respect to control” value (SaOS-2 xenograft; 100 mg/kg daily per os, endpoint day 26, P<0.01) was “about 40%”, the “signs of distress or loss of weight in mice” value (SaOS-2 xenograft; daily administration) was “did not determine any appreciable sign of distress or loss of weight” and the “phospho-Src staining of tumour tissues” value (SaOS-2 xenograft; treated groups, immunohistology Src [pY416]) was “faint or null staining”. For the same compound, the bone resorption (mouse osteoclasts; 10 and 1 μM) was “abrogate bone resorption”, the “percent inhibition of bone resorption” value (mouse osteoclasts; reduced test dose (up to 1 nM)) was “lower but significant” and the “response of cell viability compared with SaOS-2” value (MNNG cells) was “even more responsive than SaOS-2”. The “response of cell viability” value (TE-85) was “less susceptible”, the “response of cell viability” value (U-20S) was “less susceptible” and the “response of cell viability” value (MG63) was “less susceptible”. The “pro-apoptotic effect (TUNEL)” value (SaOS-2 cells [2]) was “strongest pro-apoptotic effect”, the viability at 48 h, 25 µM (in vitro) was roughly 80% and the “CV (%) after 24 h (cellular viability with respect to control)” value (SaOS-2 cells [3]; SaOS-2, MTT) was 17.1 ± 1.3%. For the same compound, the “CV (%) after 48 h (cellular viability with respect to control)” value (SaOS-2 cells [3]; SaOS-2, MTT) was 15.1 ± 0.7%, the IC50 (SaOS-2 cells [3]) was 12.6 µM and the “cell morphology / DNA damage (Hoechst)” value [9] was “did not alter cell morphology or cause DNA damage”. For the same compound, the “tolerance of treatment by osteoblasts” value (normal human osteoblasts) was “better tolerated”, the osteoblast viability ([4]; 12.5 μM) was “not affected at all” and the “reduction of osteoblast growth (inhibitory activity)” value [4] was 20%. For the same compound, the “reduction of pro-apoptotic effect on osteoblasts respecting to SaOS-2” value [6] was 79% and the “apoptosis induced in osteoblasts respecting to PP2” value ([6]; at respective IC50, time course 24, 48, 96 h) was “half of apoptosis”.
